The target in one test is T1, Mer (Homo sapiens, UniProt Q12866).
T1 construct: purchased Life Technologies
T1 sequence (Q12866 21-999): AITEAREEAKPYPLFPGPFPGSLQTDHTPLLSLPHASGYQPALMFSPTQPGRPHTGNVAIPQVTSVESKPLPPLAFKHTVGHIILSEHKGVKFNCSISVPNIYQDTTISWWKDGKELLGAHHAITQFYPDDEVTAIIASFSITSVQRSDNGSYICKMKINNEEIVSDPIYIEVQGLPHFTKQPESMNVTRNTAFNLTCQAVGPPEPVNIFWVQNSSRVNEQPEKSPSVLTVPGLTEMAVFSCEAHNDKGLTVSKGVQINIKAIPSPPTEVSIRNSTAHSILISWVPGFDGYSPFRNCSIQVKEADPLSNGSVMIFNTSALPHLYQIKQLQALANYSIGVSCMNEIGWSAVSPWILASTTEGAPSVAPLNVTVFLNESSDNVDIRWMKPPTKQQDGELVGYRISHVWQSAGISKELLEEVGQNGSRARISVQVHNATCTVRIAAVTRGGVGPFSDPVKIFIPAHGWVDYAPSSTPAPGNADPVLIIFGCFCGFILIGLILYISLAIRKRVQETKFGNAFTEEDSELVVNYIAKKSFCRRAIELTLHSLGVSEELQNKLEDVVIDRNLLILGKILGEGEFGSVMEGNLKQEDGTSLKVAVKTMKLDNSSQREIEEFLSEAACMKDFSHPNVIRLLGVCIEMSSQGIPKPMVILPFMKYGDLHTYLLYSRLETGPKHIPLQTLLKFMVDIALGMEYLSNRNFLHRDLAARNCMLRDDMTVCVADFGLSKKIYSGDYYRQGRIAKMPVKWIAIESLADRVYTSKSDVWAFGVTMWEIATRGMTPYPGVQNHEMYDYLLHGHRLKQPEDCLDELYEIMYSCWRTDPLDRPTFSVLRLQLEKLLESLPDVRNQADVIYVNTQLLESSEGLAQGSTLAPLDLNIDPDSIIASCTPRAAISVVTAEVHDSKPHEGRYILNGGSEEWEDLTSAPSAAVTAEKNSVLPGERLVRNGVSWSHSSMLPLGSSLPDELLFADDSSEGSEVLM
Briefly: LanthaScreen Eu kinase binding assay, Mer. Particulars: Tracer 236.

A further test deals with T2, Axl (Homo sapiens, UniProt P30530).
T2 construct: purchased Life Technologies
T2 sequence (P30530 26-894): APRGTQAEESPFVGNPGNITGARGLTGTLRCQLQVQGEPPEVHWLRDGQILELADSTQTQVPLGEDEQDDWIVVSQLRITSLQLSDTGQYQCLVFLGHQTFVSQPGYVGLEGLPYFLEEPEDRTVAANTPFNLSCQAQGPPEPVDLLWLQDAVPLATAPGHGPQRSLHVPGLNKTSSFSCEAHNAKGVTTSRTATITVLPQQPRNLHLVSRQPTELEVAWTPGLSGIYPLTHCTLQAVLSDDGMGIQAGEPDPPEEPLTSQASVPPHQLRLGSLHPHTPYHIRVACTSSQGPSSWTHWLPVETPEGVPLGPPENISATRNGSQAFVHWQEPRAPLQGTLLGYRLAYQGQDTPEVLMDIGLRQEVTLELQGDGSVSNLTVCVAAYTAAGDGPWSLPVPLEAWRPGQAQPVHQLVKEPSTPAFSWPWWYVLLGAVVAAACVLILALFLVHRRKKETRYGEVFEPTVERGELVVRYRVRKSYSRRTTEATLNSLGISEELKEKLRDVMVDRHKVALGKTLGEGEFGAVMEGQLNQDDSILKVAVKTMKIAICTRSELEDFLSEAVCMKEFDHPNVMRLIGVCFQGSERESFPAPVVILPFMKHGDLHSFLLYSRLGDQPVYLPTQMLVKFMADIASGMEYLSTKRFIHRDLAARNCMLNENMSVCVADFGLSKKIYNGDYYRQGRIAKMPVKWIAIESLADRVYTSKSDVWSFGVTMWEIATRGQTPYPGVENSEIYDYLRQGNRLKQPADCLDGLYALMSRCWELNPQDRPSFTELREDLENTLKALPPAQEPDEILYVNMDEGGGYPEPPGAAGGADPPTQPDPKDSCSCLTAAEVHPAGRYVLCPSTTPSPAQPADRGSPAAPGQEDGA
In words: LanthaScreen Eu kinase binding assay, Axl. The following applies: Tracer 236. A general note: Time-resolved FRET reads energy transfer from a long-lived donor to a nearby acceptor.

A further test concerns the target T3, Met (Homo sapiens, UniProt P08581).
T3 construct: purchased Life Technologies
Briefly: LanthaScreen Eu kinase binding assay, Met. Particulars: Tracer 236, read-out: cMet kinase binding activity (Kd).

Kd data for 32 compounds are collected here from patent US10934274B2, “Quinoline derivatives as TAM RTK inhibitors” (Qurient Co., Ltd., priority 2015, dated 2021).

T3 sequence (P08581 25-1390): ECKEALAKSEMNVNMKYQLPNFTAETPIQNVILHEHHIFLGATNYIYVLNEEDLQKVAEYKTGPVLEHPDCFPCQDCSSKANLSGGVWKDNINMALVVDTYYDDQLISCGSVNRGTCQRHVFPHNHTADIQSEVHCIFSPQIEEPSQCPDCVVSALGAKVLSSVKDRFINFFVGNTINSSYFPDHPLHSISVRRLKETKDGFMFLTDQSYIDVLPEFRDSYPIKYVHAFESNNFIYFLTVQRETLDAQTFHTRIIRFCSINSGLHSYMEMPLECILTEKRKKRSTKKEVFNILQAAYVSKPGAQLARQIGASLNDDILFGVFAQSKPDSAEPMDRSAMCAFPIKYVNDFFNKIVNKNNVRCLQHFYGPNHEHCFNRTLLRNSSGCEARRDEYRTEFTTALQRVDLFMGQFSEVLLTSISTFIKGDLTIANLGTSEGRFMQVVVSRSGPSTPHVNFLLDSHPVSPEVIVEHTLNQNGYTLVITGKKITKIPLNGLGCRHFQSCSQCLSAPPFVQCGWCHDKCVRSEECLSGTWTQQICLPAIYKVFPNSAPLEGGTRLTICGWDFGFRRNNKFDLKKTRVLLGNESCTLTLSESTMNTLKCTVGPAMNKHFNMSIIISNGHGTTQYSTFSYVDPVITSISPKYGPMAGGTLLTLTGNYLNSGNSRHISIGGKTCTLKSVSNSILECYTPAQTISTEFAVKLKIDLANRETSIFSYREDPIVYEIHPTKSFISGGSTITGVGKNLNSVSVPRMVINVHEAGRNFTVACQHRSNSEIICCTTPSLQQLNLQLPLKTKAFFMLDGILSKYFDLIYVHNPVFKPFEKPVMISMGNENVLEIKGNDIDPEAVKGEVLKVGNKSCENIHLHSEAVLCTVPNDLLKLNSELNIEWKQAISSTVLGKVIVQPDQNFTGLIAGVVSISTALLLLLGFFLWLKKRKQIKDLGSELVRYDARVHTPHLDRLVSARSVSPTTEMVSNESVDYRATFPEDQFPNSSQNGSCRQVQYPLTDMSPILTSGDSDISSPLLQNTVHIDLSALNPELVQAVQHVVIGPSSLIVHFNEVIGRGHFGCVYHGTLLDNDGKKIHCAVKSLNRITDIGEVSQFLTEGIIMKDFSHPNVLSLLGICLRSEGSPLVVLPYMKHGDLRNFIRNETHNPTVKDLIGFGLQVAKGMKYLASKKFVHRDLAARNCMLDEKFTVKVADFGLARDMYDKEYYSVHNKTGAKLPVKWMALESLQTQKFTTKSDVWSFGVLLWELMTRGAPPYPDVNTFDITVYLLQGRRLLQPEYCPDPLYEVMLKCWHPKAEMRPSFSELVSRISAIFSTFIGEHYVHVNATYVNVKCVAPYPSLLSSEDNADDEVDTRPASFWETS

As for `CCOc1cn(-c2ccc(OC)cc2)nc1C(=O)Nc1ccc(Oc2ccnc3cc(OC)c(OC)cc23)cn1` [Compound 1], the equilibrium dissociation constant (Kd) on Mer, on Axl and on Met was < 100 nM throughout.
On to `CCOc1cn(-c2cccs2)nc1C(=O)Nc1ccc(Oc2ccnc3cc(OC)c(OC)cc23)cn1` [Compound 17], for which the Kd at Mer, on Axl and at Met was < 100 nM throughout.
`CCOc1cn(-c2ccsc2)nc1C(=O)Nc1ccc(Oc2ccnc3cc(OC)c(OC)cc23)cn1` [Compound 18]: the Kd at Mer is < 100 nM; at Axl, < 100 nM; on Met, 100 to 1000 nM.
Take `CCOc1cn(-c2cccnc2Cl)nc1C(=O)Nc1ccc(Oc2ccnc3cc(OC)c(OC)cc23)cn1` [Compound 19]: the Kd at Mer, on Axl and at Met was < 100 nM each time.
Take `CCOc1cnn(-c2cccs2)c1C(=O)Nc1ccc(Oc2ccnc3cc(OC)c(OC)cc23)cn1` [Compound 20]: the Kd at Mer is 100 to 1000 nM; at Axl, < 100 nM; on Met it was 100 to 1000 nM.
For the compound `CCOc1cnn(-c2ccsc2)c1C(=O)Nc1ccc(Oc2ccnc3cc(OC)c(OC)cc23)cn1` [Compound 21], the values for the Kd on Mer, at Axl and at Met were 100 to 1000 nM, < 100 nM and 100 to 1000 nM, respectively.
Take `CCOc1cn(-c2cccnc2C)nc1C(=O)Nc1ccc(Oc2ccnc3cc(OC)c(OC)cc23)cn1` [Compound 23]: the Kd at Mer, on Axl and at Met was < 100 nM throughout.
As for `CCOc1cn(-c2ccncc2Cl)nc1C(=O)Nc1ccc(Oc2ccnc3cc(OC)c(OC)cc23)cn1` [Compound 26], the Kd at Mer, on Axl and on Met was < 100 nM each time.
As for `CCOc1cn(CC)nc1C(=O)Nc1ccc(Oc2ccnc3cc(OC)c(OC)cc23)cn1` [Compound 27], the Kd was < 100 nM on Mer, < 100 nM at Axl and 100 to 1000 nM on Met.
For `CCOc1cn(C)nc1C(=O)Nc1ccc(Oc2ccnc3cc(OC)c(OC)cc23)cn1` [Compound 29], the Kd at Mer was < 100 nM; on Axl, 100 to 1000 nM; at Met, 100 to 1000 nM.
With `CCOc1cnn(C)c1C(=O)Nc1ccc(Oc2ccnc3cc(OC)c(OC)cc23)cn1` [Compound 30], the dissociation constant (Kd) on Mer is 100 to 1000 nM; on Axl, ≥ 1000 nM; on Met, 100 to 1000 nM.
Regarding `CCOc1cn(-c2ccc(N(C)C)cc2Cl)nc1C(=O)Nc1ccc(Oc2ccnc3cc(OC)c(OC)cc23)cn1` [Compound 31], the values for the dissociation constant (Kd) on Mer, at Axl and on Met were < 100 nM, < 100 nM and 100 to 1000 nM, respectively.
For `CCOc1cn(-c2cc[nH]c2)nc1C(=O)Nc1ccc(Oc2ccnc3cc(OC)c(OC)cc23)cn1` [Compound 32], the Kd is < 100 nM on Mer, < 100 nM on Axl and 100 to 1000 nM on Met.
Consider `CCOc1cn(-c2ccoc2)nc1C(=O)Nc1ccc(Oc2ccnc3cc(OC)c(OC)cc23)cn1` [Compound 33], for which the Kd on Mer, at Axl and on Met was < 100 nM each time.
`CCOc1cn(-c2ccncc2C)nc1C(=O)Nc1ccc(Oc2ccnc3cc(OC)c(OC)cc23)cn1` [Compound 34]: the Kd at Mer, on Axl and on Met was < 100 nM throughout.
With `CCOc1cn(-c2cnccn2)nc1C(=O)Nc1ccc(Oc2ccnc3cc(OC)c(OC)cc23)cn1` [Compound 36], the dissociation constant (Kd) on Mer, on Axl and at Met was < 100 nM each time.
As to `CCOc1cn(CCn2cccn2)nc1C(=O)Nc1ccc(Oc2ccnc3cc(OC)c(OC)cc23)cn1` [Compound 37], the figures for the dissociation constant (Kd) on Mer, at Axl and at Met were < 100 nM, < 100 nM and 100 to 1000 nM, respectively.
In the case of `CCOc1cn(CCOC(F)(F)F)nc1C(=O)Nc1ccc(Oc2ccnc3cc(OC)c(OC)cc23)cn1` [Compound 38], the Kd at Mer, on Axl and at Met was < 100 nM throughout.
In the case of `CCOc1cn(-c2cnsc2)nc1C(=O)Nc1ccc(Oc2ccnc3cc(OC)c(OC)cc23)cn1` [Compound 39], the Kd at Mer, at Axl and at Met was < 100 nM in each case.
In the case of `CCOc1cn(-c2ccnnc2)nc1C(=O)Nc1ccc(Oc2ccnc3cc(OC)c(OC)cc23)cn1` [Compound 40], the Kd at Mer, at Axl and at Met was < 100 nM throughout.
For the compound `CCOc1cn(-c2ccc(C#N)cn2)nc1C(=O)Nc1ccc(Oc2ccnc3cc(OC)c(OC)cc23)cn1` [Compound 43], the Kd on Mer, at Axl and on Met was ≥ 1000 nM throughout.
As to `CCOc1oc(-c2cccnc2)nc1C(=O)Nc1ccc(Oc2ccnc3cc(OC)c(OC)cc23)cn1` [Compound 44], the dissociation constant Kd on Mer, on Axl and at Met was < 100 nM in each case.
Take `CCOc1sc(-c2cccnc2)nc1C(=O)Nc1ccc(Oc2ccnc3cc(OC)c(OC)cc23)cn1` [Compound 45]: the dissociation constant Kd at Mer, on Axl and at Met was < 100 nM each time.
As to `CCOc1cn(CC2CCO2)nc1C(=O)Nc1ccc(Oc2ccnc3cc(OC)c(OC)cc23)cn1` (stereo not drawn) [Compound 48], the Kd on Mer is < 100 nM; at Axl, < 100 nM; at Met it was 100 to 1000 nM.
Consider `CCOc1cn(-c2cnc(C#N)nc2)nc1C(=O)Nc1ccc(Oc2ccnc3cc(OC)c(OC)cc23)cn1` [Compound 55], for which the Kd at Mer is 100 to 1000 nM; at Axl, < 100 nM; on Met, 100 to 1000 nM.
With `CCOc1cn(-c2ccn(C)c2)nc1C(=O)Nc1ccc(Oc2ccnc3cc(OC)c(OC)cc23)cn1` [Compound 56], the Kd on Mer, on Axl and on Met was < 100 nM each time.
`CCOc1cn(-c2ccco2)nc1C(=O)Nc1ccc(Oc2ccnc3cc(OC)c(OC)cc23)cn1` [Compound 57]: the Kd at Mer, on Axl and at Met was < 100 nM in each case.
As for `CCOc1cnn(-c2ccco2)c1C(=O)Nc1ccc(Oc2ccnc3cc(OC)c(OC)cc23)cn1` [Compound 58], the Kd is 100 to 1000 nM at Mer, < 100 nM at Axl and 100 to 1000 nM on Met.
Regarding `CCOc1cn(-c2ncco2)nc1C(=O)Nc1ccc(Oc2ccnc3cc(OC)c(OC)cc23)cn1` [Compound 59], the dissociation constant (Kd) on Mer, on Axl and on Met was < 100 nM in each case.
Take `CCOc1cn(-c2cnccc2CCCN(C)C)nc1C(=O)Nc1ccc(Oc2ccnc3cc(OC)c(OC)cc23)cn1` [Compound 61]: the dissociation constant (Kd) at Mer, at Axl and at Met was < 100 nM each time.
With `CCOc1cn(CCOC)nc1C(=O)Nc1ccc(Oc2ccnc3cc(OC)c(OC)cc23)cn1` [Compound 64], the Kd at Mer, on Axl and on Met was < 100 nM each time.
In the case of `CCOc1cn(-c2cnccc2CCN(C)C)nc1C(=O)Nc1ccc(Oc2ccnc3cc(OC)c(OC)cc23)cn1` [Compound 65], the Kd on Mer, on Axl and on Met was < 100 nM each time.

As usually defined, the Kd is the free concentration of one partner at which half of the binding sites on the other are occupied at equilibrium, for simple one-to-one binding.
